Reference: US5654469A, “Acetylenes disubstituted with a 5 substituted tetrahydronaphthyl group and with an aryl or heteroaryl groups having retinoid-like biological activity” (Allergan, priority 1996, dated 1997)

Tested on: ornithine decarboxylase (ODC)
Experiment: ODC assay: inhibition of TPA induction of ornithine decarboxylase (retinoid-like activity)
Format: biochemical
Conditions: concentration of the test compound which causes 80% inhibition in the ODC assay (TPA-induced ODC)
From the text: The retinoic acid-like activity of these compounds is confirmed through the classic measure of retinoic acid activity involving the effects of retinoic acid on ornithine decarboxylase. The original work on the correlation between retinoic acid and decrease in cell proliferation was done by Verma & Boutwell, Cancer Research, 1977, 37,2196-2201. That reference discloses that ornithine decarboxylase (ODC) activity increased precedent to polyamine biosynthesis. It has been established elsewhere that increases in polyamine synthesis can be correlated or associated with cellular proliferation. Thus, if ODC activity could be inhibited, cell hyperproliferation could be modulated. Although all cases for ODC activity increases are unknown, it is known that 12-0-tetradecanoylphorbol-13-acetate (TPA) induces ODC activity. Retinoic acid inhibits this induction of ODC activity by TPA. […] Activity of exemplary compounds of the present invention in the above-described ODC assay is disclosed in Table 2 which provides the IC80 concentration for the respective exemplary compound. ("IC80 " is that concentration of the test compound which causes 80% inhibition in the ODC assay. By analogy, "IC60, for example, is that concentration of the test compound which causes 60% inhibition in the ODC assay.)

Row | Compound | IC80 conc [nmols]
1 | CCOC(=O)c1ccc(C#Cc2ccc3c(c2)C(C)(C)CC[C@@H]3O[C@@H]2CCCCO2)cc1 (relative stereo) [Compound 13, Ethyl 4-[[5,6,7,8-tetrahydro-5(SR)-(2'(RS)-tetrahydropyranyloxy)-8,8-dimethylnaphth-2-yl]ethynyl]benzoate] | 7.29
2 | CCOC(=O)c1ccc(C#Cc2ccc3c(c2)C(C)(C)CC[C@@H]3O[C@H]2CCCCO2)cc1 (relative stereo) [Compound 14] | 2.80
3 | CCOC(=O)c1ccc(C#Cc2ccc3c(c2)[C@H](O[C@@H]2CCCCO2)CCC3(C)C)cc1 (relative stereo) [Compound 15, Ethyl 4-[[5,6,7,8-tetrahydro-5 (RS)-(2'(RS)-tetrahydropyranyloxy)-8,8-dimethylnaphth-3-yl]ethynyl]benzoate] | 0.09
4 | CCOC(=O)c1ccc(C#Cc2ccc3c(c2)[C@H](O[C@H]2CCCCO2)CCC3(C)C)cc1 (relative stereo) [Compound 16, Ethyl 4-[[5,6,7,8-tetrahydro-5(RS)-(2'(SR)-tetrahydropyranyloxy)-8,8-dimethylnaphth-3-yl]ethynyl]benzoate] | 0.60
5 | CCOC(=O)c1ccc(C#Cc2ccc3c(c2)[C@H](O[C@@H]2CCCCO2)CCC3(C)C)nc1 (relative stereo) [Compound 17, Ethyl 6-[[5,6,7,8-tetrahydro-5(RS)-(2'(RS)-tetrahydropyranyloxy)-8,8-dimethylnaphth-3-yl]ethynyl]nicotinate] | 0.35
6 | CCOC(=O)c1ccc(C#Cc2ccc3c(c2)[C@H](O[C@H]2CCCCO2)CCC3(C)C)nc1 (relative stereo) [Compound 18] | 2.20
7 | CC1(C)CC[C@H](O[C@@H]2CCCCO2)c2ccc(C#Cc3ccc(C(=O)O)cc3)cc21 (relative stereo) [Compound 32, 4-[[5,6,7,8-tetrahydro-5(SR)-(2'(RS)-tetrahydropyranyloxy)-8,8-dimethylnaphth-2-yl]ethynyl]benzoic acid] | 4.20
8 | CC1(C)CC[C@@H](O[C@@H]2CCCCO2)c2cc(C#Cc3ccc(C(=O)O)cc3)ccc21 (relative stereo) [Compound 33] | 0.08
9 | CC1(C)CC[C@@H](O[C@H]2CCCCO2)c2cc(C#Cc3ccc(C(=O)O)cc3)ccc21 (relative stereo) [Compound 34, 4-[[5,6,7,8-tetrahydro-5(RS)-(2'(SR)-tetrahydropyranyloxy)-8,8-dimethylnaphth-3-yl]ethynyl]benzoic acid] | 2.30
10 | CC1(C)CC[C@H](O[C@H]2CCCCO2)c2ccc(C#Cc3ccc(C(=O)O)cc3)cc21 (relative stereo) [Compound 35] | < 3
11 | CC1(C)CC[C@@H](O[C@@H]2CCCCO2)c2cc(C#Cc3ccc(C(=O)O)cn3)ccc21 (relative stereo) [Compound 36] | 18.70
12 | CCOC(=O)c1ccc(C#Cc2ccc3c(c2)C(OC2CCCCC2)CCC3(C)C)cc1 (stereo not drawn) [Compound 6, Ethyl 4-[(5-cyclohexyloxy-5,6,7,8-tetrahydro-8,8-di-methyl-naphth-3-yl)ethynyl]benzoate] | 3.83
13 | CCOC(=O)c1ccc(C#Cc2ccc3c(c2)C(C)(C)CCC3O)cc1 (stereo not drawn) [Compound 9, Ethyl 4-[(5,6,7,8-tetrahydro-5-hydroxy-8,8-dimethyl-naphth-2-yl)ethynyl]benzoate] | 0.91
14 | CCOC(=O)c1ccc(C#Cc2ccc3c(c2)C(O)CCC3(C)C)cc1 (stereo not drawn) [Compound 10, Ethyl 4-[(5,6,7,8-tetrahydro-5-hydroxy-8,8-dimethylnaphth-3-yl)ethynyl]benzoate] | 3.18
15 | CCOC(=O)c1ccc(C#Cc2ccc3c(c2)C(OCOC)CCC3(C)C)cc1 (stereo not drawn) [Compound 12] | 0.40
16 | CC1(C)CCC(O)c2cc(C#Cc3ccc(C(=O)O)cc3)ccc21 (stereo not drawn) [Compound 41, 4-[(5,6,7,8-tetrahydro-5-hydroxy-8,8-dimethylnaphth-3-yl)ethynyl]benzoic acid] | 9.30
17 | CC1(C)CCC(O)c2ccc(C#Cc3ccc(C(=O)O)cc3)cc21 (stereo not drawn) [Compound 42, 4-[(5,6,7,8-tetrahydro-5-hydroxy-8,8-dimethylnaphth-2-yl)ethynyl]benzoic acid] | 0.66
18 | COCOC1CCC(C)(C)c2ccc(C#Cc3ccc(C(=O)O)cc3)cc21 (stereo not drawn) [Compound 43] | 0.81
19 | CCOC(=O)c1ccc(C#Cc2ccc3c(c2)C(C)(C)CCC3(C#N)O[Si](C)(C)C)cc1 (stereo not drawn) [Compound 107, Ethyl 4-[(5-cyano-5,6,7,8-tetrahydro-8,8-dimethyl-5-trimethylsiloxynaphth-2-yl)ethynyl]benzoate] | 1.43
20 | CCOC(=O)c1ccc(C#Cc2ccc3c(c2)C(C)(C)CCC3O[Si](C)(C)C)cc1 (stereo not drawn) [Compound 111, Ethyl 4-[(5,6,7,8-tetrahydro-8,8-dimethyl-5-trimethylsiloxynaphth-2-yl)ethynyl]benzoate] | 3.40
21 | CCOC(=O)CC1(O)CCC(C)(C)c2cc(C#Cc3ccc(C(=O)OCC)cc3)ccc21 (stereo not drawn) [Compound 113, Ethyl 4-[(5,6,7,8-tetrahydro-5-hydroxy-8,8-dimethyl-5-carboethoxymethylnaphth-2-yl)ethynyl]benzoate] | 1.33
22 | CCOC(=O)CC1(O)CCC(C)(C)c2cc(C#Cc3ccc(C(=O)OCC[Si](C)(C)C)cc3)ccc21 (stereo not drawn) [Compound 117, Trimethylsilylethyl 4-[(5,6,7,8-tetrahydro-5-hydroxy-8,8-dimethyl-5-carboethoxymethylnaphth-2-yl)ethynyl]benzoate] | 8.60
23 | CCOC(=O)CC1(O)CCC(C)(C)c2ccc(C#Cc3ccc(C(=O)OCC)cc3)cc21 (stereo not drawn) [Compound 119, Ethyl 4-[(5-hydroxy-8,8-dimethyl-5-carhoethoxymethyl-5,6,7,8-tetrahydronapth-3-yl)ethynyl]benzoate] | 1.0
24 | CCOC(=O)c1ccc(C#Cc2ccc3c(c2)C(C)(C)CCC3SC(C)=O)cc1 (stereo not drawn) [Compound 143, Ethyl 4-[(5,6,7,8-tetrahydro-8,8-dimethyl-5-thioacetylnaphth-2-yl)ethynyl]benzoate] | 0.15
